Values of other authors as cited in patent CN104013603A, “一种烟碱缓释贴剂” (Shanghai Tobacco Group Co Ltd, priority 2014, dated 2014).

Legend:
[1] = background statement
[2] = background statement; remark: listed apart in the source

SMILES: CN1CCC[C@H]1c1cccnc1 [尼古丁, (S)-3-(1-Methyl-2-pyrroli-dinyl)pyridine]
- solubility [1]: 可溶于水、乙醇、氯仿、乙醚、油类
- penetration into skin [2]: 可渗入皮肤
